Among the data in patent publication US8426408B2, “Pyrimidine inhibitors of kinases” (AbbVie Inc., priority 2009, dated 2013) are Ki and IC50 values, retold here.

Broadly, the Ki is a dissociation constant, usually derived from enzyme kinetics or from competition with a known ligand. What is called IC50 is the concentration needed to halve the response being measured.

The target of one assay is T1, Aurora B (Homo sapiens, UniProt Q96GD4).
T1 construct: Active Aurora B enzyme (recombinant residues 1-344)
T1 sequence (Q96GD4 whole entry, the tested form may be a part): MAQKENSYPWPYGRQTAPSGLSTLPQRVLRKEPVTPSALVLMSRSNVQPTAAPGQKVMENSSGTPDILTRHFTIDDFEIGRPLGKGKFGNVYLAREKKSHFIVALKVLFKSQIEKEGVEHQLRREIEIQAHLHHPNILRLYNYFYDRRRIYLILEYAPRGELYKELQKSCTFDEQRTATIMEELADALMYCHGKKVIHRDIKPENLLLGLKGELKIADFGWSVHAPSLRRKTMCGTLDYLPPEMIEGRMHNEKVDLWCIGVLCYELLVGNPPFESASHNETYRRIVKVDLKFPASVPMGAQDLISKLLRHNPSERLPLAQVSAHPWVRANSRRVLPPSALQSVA
T1 sequence (Q9NQS7 826-918 partner limits assumed): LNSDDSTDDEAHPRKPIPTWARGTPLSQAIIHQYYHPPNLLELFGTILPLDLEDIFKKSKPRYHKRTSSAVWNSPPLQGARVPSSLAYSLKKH
Briefly: Aurora B enzyme inhibition (time-resolved fluorescence, histone H3 peptide). Type of assay: biochemical. To be noted: 1 mM ATP. In outline:
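IC50s came from an exponential fit of inhibition against inhibitor concentration, with phosphorylation read as the 665/615 nm time-resolved fluorescence ratio after EDTA stop using Eu-anti-phospho-H3 and SA-APC. The 1 h reaction used Aurora B 1-344 plus GST-INCENP, biotin-histone H3 1-21 peptide and 1 mM ATP in pH 7.4 HEPES buffer.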

Another assay addresses T2, Aurora A (Homo sapiens, UniProt O14965).
T2 sequence (O14965 1-403): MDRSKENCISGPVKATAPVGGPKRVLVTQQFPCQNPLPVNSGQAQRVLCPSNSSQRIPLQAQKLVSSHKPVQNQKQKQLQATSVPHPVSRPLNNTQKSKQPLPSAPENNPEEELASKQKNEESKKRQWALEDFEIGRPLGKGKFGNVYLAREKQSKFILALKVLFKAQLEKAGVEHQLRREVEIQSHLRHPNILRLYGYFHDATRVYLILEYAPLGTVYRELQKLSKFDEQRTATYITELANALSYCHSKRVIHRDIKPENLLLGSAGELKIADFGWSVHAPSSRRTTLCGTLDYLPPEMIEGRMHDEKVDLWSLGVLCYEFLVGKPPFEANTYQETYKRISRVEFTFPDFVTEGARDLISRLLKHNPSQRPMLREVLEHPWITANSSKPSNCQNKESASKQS
Put plainly: Aurora A enzyme inhibition (time-resolved fluorescence, STK substrate-2). The class given is biochemical. To be noted: 1 mM ATP. An outline of the steps: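 Phosphorylation of biotinylated STK substrate-2 at 1 mM ATP, 1 h, Hepes buffer pH 7.4 (MgCl2, sodium orthovanadate, Triton X-100). After EDTA quench, 665/615 nm time-resolved fluorescence ratio read via europium anti-phospho antibody and SA-XL665; IC50 from exponential fit versus inhibitor concentration.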

The target of a further assay is KDR (Homo sapiens, UniProt P35968). Put plainly: KDR cellular assay (KDR receptor phosphorylation ELISA). The class given is cell-based. The arrangement: expressed in transfected cells; host or cells: 3T3 (embryonic mouse) cells. To be noted: KDR transfected 3T3 (embryonic mouse) cells, VEGF stimulated; read-out: IC50 inhibition of KDR phosphorylation. An outline of the steps: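 Phospho-KDR measured by capture ELISA (anti-KDR coat, biotinylated detection, streptavidin-HRP, 450 nm) in lysates of KDR-expressing 3T3 mouse fibroblasts. Cells saw compound 20 min at 37° C before 10 min VEGF challenge (100 ng/ml solution); IC50 from non-linear regression of half-log dose series.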
Sequence of KDR (P35968 20-1356): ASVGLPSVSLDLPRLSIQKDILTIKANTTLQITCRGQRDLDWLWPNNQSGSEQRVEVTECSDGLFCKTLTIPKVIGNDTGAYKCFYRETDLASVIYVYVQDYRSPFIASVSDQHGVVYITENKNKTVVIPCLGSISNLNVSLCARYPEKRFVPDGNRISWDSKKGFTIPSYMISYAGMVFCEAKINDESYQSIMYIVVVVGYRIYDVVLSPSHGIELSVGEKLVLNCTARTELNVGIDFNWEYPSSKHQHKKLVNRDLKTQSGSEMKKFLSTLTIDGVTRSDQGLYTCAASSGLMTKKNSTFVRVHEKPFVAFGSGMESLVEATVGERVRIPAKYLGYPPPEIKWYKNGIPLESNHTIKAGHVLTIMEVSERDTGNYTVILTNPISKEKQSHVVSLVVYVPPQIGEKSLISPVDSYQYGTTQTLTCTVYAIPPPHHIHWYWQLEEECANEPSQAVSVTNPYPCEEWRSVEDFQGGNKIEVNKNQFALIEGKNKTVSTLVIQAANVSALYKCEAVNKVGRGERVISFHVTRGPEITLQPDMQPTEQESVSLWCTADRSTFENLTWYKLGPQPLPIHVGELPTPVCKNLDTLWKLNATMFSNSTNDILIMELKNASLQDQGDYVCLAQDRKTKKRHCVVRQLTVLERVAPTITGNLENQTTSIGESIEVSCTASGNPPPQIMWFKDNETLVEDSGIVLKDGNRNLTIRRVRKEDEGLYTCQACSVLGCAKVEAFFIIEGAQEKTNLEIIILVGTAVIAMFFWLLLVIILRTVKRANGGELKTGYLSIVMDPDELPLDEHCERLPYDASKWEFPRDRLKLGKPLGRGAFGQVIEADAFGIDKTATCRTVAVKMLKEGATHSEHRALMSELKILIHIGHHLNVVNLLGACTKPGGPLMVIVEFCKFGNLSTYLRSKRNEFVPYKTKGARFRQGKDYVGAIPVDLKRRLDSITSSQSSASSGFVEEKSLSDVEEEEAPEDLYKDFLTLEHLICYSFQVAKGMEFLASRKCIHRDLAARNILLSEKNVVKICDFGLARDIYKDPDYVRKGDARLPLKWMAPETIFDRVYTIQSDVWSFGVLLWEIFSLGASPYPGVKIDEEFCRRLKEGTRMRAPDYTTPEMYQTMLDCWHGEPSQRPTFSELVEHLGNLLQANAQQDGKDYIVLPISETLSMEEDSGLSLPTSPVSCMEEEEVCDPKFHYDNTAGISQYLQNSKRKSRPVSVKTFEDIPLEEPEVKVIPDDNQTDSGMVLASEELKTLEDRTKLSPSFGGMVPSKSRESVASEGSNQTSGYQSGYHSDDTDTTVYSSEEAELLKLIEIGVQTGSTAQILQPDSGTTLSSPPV
Background: An ELISA detects its analyte on a solid surface through an enzyme-linked reagent.

In the case of `CC(O)Cn1cc(Nc2ncc(C(F)(F)F)c(NC3C4CCC(C4)C3C(N)=O)n2)cn1` (mixture of isomers) [Example 21, (1S,2R,3S,4R)-3-{[2-({1-[(2R)-2-hydroxypropyl]-1H-pyrazol-4-yl}amino)-5-(trifluoromethyl)pyrimidin-4-yl]amino}bicyclo[2.2.1]heptane-2-carboxamide and (1R,2S,3R,4S)-3-{[2-({1-[(2R)-2-hydroxypropyl]-1H-pyrazol-4-yl}amino)-5-(trifluoromethyl)pyrimidin-4-yl]amino}bicyclo[2.2.1]heptane-2-carboxamide], the Ki at Aurora B was 0.1 to 1 µM; on Aurora A, less than 0.1 µM. Besides, on KDR, the IC50 lay within 0.1 to 1 µM.

For the compound `Cn1cc(Nc2ncc(C(F)(F)F)c(Nc3ccccc3C3(O)CCC3)n2)cn1` [Example 115, 1-[2-({2-[(1-methyl-1H-pyrazol-4-yl)amino]-5-(trifluoromethyl)pyrimidin-4-yl}amino)phenyl]cyclobutanol], the inhibition constant Ki on Aurora B and at Aurora A was less than 0.1 µM throughout. Moreover, the IC50 at KDR lay in the range of 0.1 to 1 µM.

Take `NC(=O)[C@@H]1[C@H](Nc2nc(Nc3cnn(C[C@H](O)CO)c3)ncc2Br)[C@H]2C=C[C@@H]1C2` [Example 131, (1S,2S,3R,4R)-3-{[5-bromo-2-({1-[(2S)-2,3-dihydroxypropyl]-1H-pyrazol-4-yl}amino)pyrimidin-4-yl]amino}bicyclo[2.2.1]hept-5-ene-2-carboxamide]: the Ki on Aurora B and on Aurora A was less than 0.1 µM each time. Besides, the half-maximal inhibitory concentration (IC50) at KDR was in the range of 0.1 to 1 µM.

On to `Cn1cc(Nc2ncc(Cl)c(Nc3ccccc3C3(O)CCC3)n2)cn1` [Example 101, 1-[2-({5-chloro-2-[(1-methyl-1H-pyrazol-4-yl)amino]pyrimidin-4-yl}amino)phenyl]cyclobutanol], for which the Ki on Aurora B and at Aurora A was less than 0.1 µM each time. In addition, at KDR, the IC50 lay within 0.1 to 1 µM.

For `C[C@@H](O)Cn1cc(Nc2ncc(Cl)c(N[C@H]3[C@@H](C(N)=O)[C@@H]4C=C[C@H]3C4)n2)cn1` [Example 105, (1S,2S,3R,4R)-3-{[5-chloro-2-({1-[(2R)-2-hydroxypropyl]-1H-pyrazol-4-yl}amino)pyrimidin-4-yl]amino}bicyclo[2.2.1]hept-5-ene-2-carboxamide], the Ki at Aurora B and on Aurora A was less than 0.1 µM throughout. In addition, the IC50 on KDR is less than 0.1 µM.

With `NC(=O)[C@@H]1[C@H](Nc2nc(Nc3cnn(C4CCC4)c3)ncc2Br)[C@H]2C=C[C@@H]1C2` [Example 123, (1S,2S,3R,4R)-3-({5-bromo-2-[(1-cyclobutyl-1H-pyrazol-4-yl)amino]pyrimidin-4-yl}amino)bicyclo[2.2.1]hept-5-ene-2-carboxamide], the Ki at Aurora B and at Aurora A was less than 0.1 µM in each case. For the same compound, the IC50 at KDR was less than 0.1 µM.

In the case of `NC(=O)[C@@H]1[C@H](Nc2nc(Nc3cnn(CCc4ccccc4)c3)ncc2Cl)[C@H]2C=C[C@@H]1C2` [Example 143, (1S,2S,3R,4R)-3-[(5-chloro-2-{[1-(2-phenylethyl)-1H-pyrazol-4-yl]amino}pyrimidin-4-yl)amino]bicyclo[2.2.1]hept-5-ene-2-carboxamide], the Ki on Aurora B and at Aurora A was less than 0.1 µM throughout. Moreover, the IC50 on KDR is less than 0.1 µM.

On to `NC(=O)[C@@H]1[C@H](Nc2nc(Nc3cnn([C@@H]4CCOC4)c3)ncc2Cl)[C@H]2C=C[C@@H]1C2` [Example 107, (1S,2S,3R,4R)-3-{[5-chloro-2-({1-[(3R)-tetrahydrofuran-3-yl]-1H-pyrazol-4-yl}amino)pyrimidin-4-yl]amino}bicyclo[2.2.1]hept-5-ene-2-carboxamide], for which the Ki at Aurora B and at Aurora A was less than 0.1 µM in each case. Besides, the IC50 on KDR was less than 0.1 µM.

`NC(=O)[C@@H]1[C@H](Nc2nc(Nc3cnn(CCc4ccccc4)c3)ncc2Br)[C@H]2C=C[C@@H]1C2` [Example 148, (1S,2S,3R,4R)-3-[(5-bromo-2-{[1-(2-phenylethyl)-1H-pyrazol-4-yl]amino}pyrimidin-4-yl)amino]bicyclo[2.2.1]hept-5-ene-2-carboxamide]: the Ki on Aurora B and on Aurora A was less than 0.1 µM each time. Further, the IC50 on KDR was less than 0.1 µM.

As for `COc1cccc(CCn2cc(Nc3ncc(Cl)c(N[C@H]4[C@@H](C(N)=O)[C@@H]5C=C[C@H]4C5)n3)cn2)c1` [Example 154, (1S,2S,3R,4R)-3-{[5-chloro-2-({1-[2-(3-methoxyphenyl)ethyl]-1H-pyrazol-4-yl}amino)pyrimidin-4-yl]amino}bicyclo[2.2.1]hept-5-ene-2-carboxamide], the Ki on Aurora B and at Aurora A was less than 0.1 µM throughout. At KDR, the IC50 lay in the range of 0.1 to 1 µM.

As for `CCn1cc(Nc2ncc(C(F)(F)F)c(N[C@@H]3[C@H](C(N)=O)[C@H]4C=C[C@@H]3C4)n2)cn1.CCn1cc(Nc2ncc(C(F)(F)F)c(N[C@H]3[C@@H](C(N)=O)[C@@H]4C=C[C@H]3C4)n2)cn1` (mixture of isomers) [Example 22, (1S,2S,3R,4R)-3-{[2-[(1-ethyl-1H-pyrazol-4-yl)amino]-5-(trifluoromethyl)pyrimidin-4-yl]amino}bicyclo[2.2.1]hept-5-ene-2-carboxamide and (1R,2R,3S,4S)-3-{[2-[(1-ethyl-1H-pyrazol-4-yl)amino]-5-(trifluoromethyl)pyrimidin-4-yl]amino}bicyclo[2.2.1]hept-5-ene-2-carboxamide], the Ki at Aurora B and at Aurora A was less than 0.1 µM each time. In addition, the IC50 on KDR was less than 0.1 µM.

Take `Cn1cc(Nc2ncc(Cl)c(N[C@H]3[C@@H](C(N)=O)C[C@H]4C[C@@H]3C4(C)C)n2)cn1` [Example 165, (1R,2R,3S,5R)-2-({5-chloro-2-[(1-methyl-1H-pyrazol-4-yl)amino]pyrimidin-4-yl}amino)-6,6-dimethylbicyclo[3.1.1]heptane-3-carboxamide]: the Ki on Aurora B and at Aurora A was less than 0.1 µM each time. Besides, the IC50 on KDR was 0.1 to 1 µM.

Turning to `CN1CCN(CCn2cc(Nc3ncc(Cl)c(N[C@H]4[C@@H](C(N)=O)[C@@H]5C=C[C@H]4C5)n3)cn2)CC1` [Example 91, (1S,2S,3R,4R)-3-{[5-chloro-2-({1-[2-(4-methylpiperazin-1-yl)ethyl]-1H-pyrazol-4-yl}amino)pyrimidin-4-yl]amino}bicyclo[2.2.1]hept-5-ene-2-carboxamide], the Ki on Aurora B and on Aurora A was less than 0.1 µM in each case. In addition, the IC50 on KDR is less than 0.1 µM.

For the compound `Cc1c(Nc2ncc(Br)c(N[C@H]3[C@@H](C(N)=O)[C@@H]4C=C[C@H]3C4)n2)cnn1C` [Example 170, (1S,2S,3R,4R)-3-({5-bromo-2-[(1,5-dimethyl-1H-pyrazol-4-yl)amino]pyrimidin-4-yl}amino)bicyclo[2.2.1]hept-5-ene-2-carboxamide], the Ki at Aurora B and at Aurora A was less than 0.1 µM throughout. Further, the IC50 at KDR is less than 0.1 µM.

`NC(=O)[C@@H]1[C@H](Nc2nc(Nc3cnn(C[C@@H](O)CO)c3)ncc2Cl)[C@H]2C=C[C@@H]1C2` [Example 130, (1S,2S,3R,4R)-3-{[5-chloro-2-({1-[(2R)-2,3-dihydroxypropyl]-1H-pyrazol-4-yl}amino)pyrimidin-4-yl]amino}bicyclo[2.2.1]hept-5-ene-2-carboxamide]: the Ki at Aurora B and on Aurora A was less than 0.1 µM throughout. For the same compound, the IC50 at KDR was 0.1 to 1 µM.
